Data reported in patent US20230114241A1, “METHODS OF TREATING EPILEPSY USING THE SAME” (Trevena, Inc., priority 2019, published 2023).

Experiments:
[1] = target: sphingosine-1-phosphate receptor 5 (S1P5) (Homo sapiens, UniProt Q9H228); experiment: Selectivity: inhibition of cAMP production (HTRF), S1P5 CHO-K1 cells; type: cell-based; details: for Emax: CHO-K1, efficacy normalized to maximal efficacy of fimgolimod, read-out: hS1P5 cAMP SPAN; for EC50: inhibition of cAMP production, read-out: hS1P5 cAMP pEC50 (converted)
Sequence of sphingosine-1-phosphate receptor 5 (S1P5) (Q9H228 whole entry): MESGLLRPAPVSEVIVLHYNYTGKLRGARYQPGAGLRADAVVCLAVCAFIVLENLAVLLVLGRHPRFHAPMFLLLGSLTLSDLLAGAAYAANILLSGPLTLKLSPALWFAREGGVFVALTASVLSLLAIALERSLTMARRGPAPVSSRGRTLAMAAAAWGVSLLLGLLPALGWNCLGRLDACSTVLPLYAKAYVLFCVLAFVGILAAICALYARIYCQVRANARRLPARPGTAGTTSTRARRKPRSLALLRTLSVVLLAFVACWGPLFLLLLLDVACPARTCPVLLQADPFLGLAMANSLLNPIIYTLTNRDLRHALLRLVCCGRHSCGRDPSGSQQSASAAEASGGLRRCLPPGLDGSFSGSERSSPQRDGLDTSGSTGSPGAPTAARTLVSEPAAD
Procedure: (§1) Cell Culturing and Assay Plating Cell lines were cultured in AssayComplete™ Media 6 (DiscoverX Corporation, Cat #: 920018GF2) at 37° C. and 5% CO2 in a humidified CO2 and temperature-controlled incubator. To begin assay plating, cells were washed with Dulbecco's phosphate buffered saline (CellGro, Cat #: 21-031-CV) and lifted from the culturing flask by incubation (37° C., 5 min) with CellStripper (Cellgro, Cat #: 25-056-CI). […] Plated cells were incubated overnight at 37° C. and 5% CO2 in a humidified CO2 and temperature-controlled incubator. Detecting Inhibition of cAMP Production
(§2) S1P3 and S1P5 Agonist-promoted G-protein responses were determined by measuring changes in intracellular cAMP using the HTRF® cAMP HiRange kit (CisBio, Cat #: 62AM6PEJ) based on time-resolved fluorescence resonance energy transfer (TR-FRET) technology. […] Following a 30-minute room temperature incubation the components of the cAMP HiRange kit were added as per the manufacturer's instructions. After an hour incubation at room temperature, plates were analyzed by a BMG PheraStar microplate reader.
(§3) These values are normalized to fimgolimod, a known agonist of the sphingosine-1-phosphate 3 and 5 receptor or CYM5520, a known agonist of the sphingosine-1-phosphate 2 receptor. The tables also include potency values (pEC50) for modulating discrete receptor-mediated activities (inhibition of cAMP production or inositol monophosphate accumulation).

[2] = target: T1, human sphingosine-1-phosphate receptor 1 (S1P1) (Homo sapiens, UniProt P21453); experiment: β-Arrestin2 recruitment assay (PathHunter), S1P1 CHO-K1 cells; type: cell-based; details: for Emax: efficacy normalized to maximum efficacy of fingolimod, read-out: hS1P1 B-arrestin2 SPAN; for EC50: β-arrestin2 recruitment, read-out: hS1P1 B-arrestin2 pEC50 (converted)
Method in brief: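 CHO-K1 cells co-expressing EA-β-arrestin2 and ProLink-tagged human S1P1 plated overnight, then stimulated 60 min at 37 °C. Enzyme-fragment complementation (β-galactosidase) detected after 1 h at room temperature by luminescence; values normalized to fingolimod.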
Target sequence in this assay (P21453 whole entry, the tested form may be a part): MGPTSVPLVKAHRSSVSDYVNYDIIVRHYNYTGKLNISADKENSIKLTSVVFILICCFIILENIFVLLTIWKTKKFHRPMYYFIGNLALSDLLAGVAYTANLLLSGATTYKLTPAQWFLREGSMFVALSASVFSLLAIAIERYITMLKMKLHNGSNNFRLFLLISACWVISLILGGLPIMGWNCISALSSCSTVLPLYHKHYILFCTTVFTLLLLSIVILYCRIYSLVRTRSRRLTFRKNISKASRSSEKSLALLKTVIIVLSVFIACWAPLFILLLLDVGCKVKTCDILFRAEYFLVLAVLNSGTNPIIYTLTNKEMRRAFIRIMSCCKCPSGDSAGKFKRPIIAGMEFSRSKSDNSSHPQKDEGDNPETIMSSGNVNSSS
Target sequence in this assay (P32121 whole entry partner, the tested form may be a part): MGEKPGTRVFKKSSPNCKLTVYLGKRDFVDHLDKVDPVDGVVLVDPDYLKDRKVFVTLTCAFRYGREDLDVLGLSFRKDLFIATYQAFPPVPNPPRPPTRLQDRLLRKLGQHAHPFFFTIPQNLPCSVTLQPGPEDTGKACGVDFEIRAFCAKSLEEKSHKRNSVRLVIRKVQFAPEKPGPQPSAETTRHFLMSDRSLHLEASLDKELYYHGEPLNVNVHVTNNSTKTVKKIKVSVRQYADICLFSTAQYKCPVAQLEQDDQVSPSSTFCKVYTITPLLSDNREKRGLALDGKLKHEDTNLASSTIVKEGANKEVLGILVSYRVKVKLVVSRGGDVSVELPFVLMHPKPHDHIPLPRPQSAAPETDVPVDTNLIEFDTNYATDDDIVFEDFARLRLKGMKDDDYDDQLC

[3] = target: human sphingosine-1-phosphate receptor 3 (S1P3) (Homo sapiens, UniProt Q99500); experiment: Selectivity: inhibition of cAMP production (HTRF), S1P3 CHO-K1 cells; type: cell-based; details: for Emax: CHO-K1, efficacy normalized to maximal efficacy of fimgolimod, read-out: hS1P3 cAMP SPAN; for EC50: inhibition of cAMP production, read-out: hS1P3 cAMP pEC50 (converted)
Sequence of human sphingosine-1-phosphate receptor 3 (S1P3) (Q99500 whole entry): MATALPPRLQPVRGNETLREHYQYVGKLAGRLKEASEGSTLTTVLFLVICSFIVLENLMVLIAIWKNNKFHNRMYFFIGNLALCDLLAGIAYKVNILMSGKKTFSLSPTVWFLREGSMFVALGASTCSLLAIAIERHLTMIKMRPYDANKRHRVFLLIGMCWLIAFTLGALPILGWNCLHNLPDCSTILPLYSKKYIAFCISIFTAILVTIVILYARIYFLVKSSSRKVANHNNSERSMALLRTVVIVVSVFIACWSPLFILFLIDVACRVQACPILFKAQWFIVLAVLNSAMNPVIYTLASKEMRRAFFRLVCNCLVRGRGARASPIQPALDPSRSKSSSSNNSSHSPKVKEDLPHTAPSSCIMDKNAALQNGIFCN
Procedure: as §1, §2, §3

[4] = target: human sphingosine-1-phosphate receptor 2 (S1P2) (Homo sapiens, UniProt O95136); experiment: Selectivity: inositol monophosphate production (IP-one), S1P2 CHO-K1 cells; type: cell-based; details: for Emax: CHO-K1, efficacy normalized to maximal efficacy of CYM5520, read-out: hS1P2 IP-one SPAN; for EC50: inositol monophosphate accumulation, read-out: hS1P2 IP-one pEC50 (converted)
Sequence of human sphingosine-1-phosphate receptor 2 (S1P2) (O95136 whole entry): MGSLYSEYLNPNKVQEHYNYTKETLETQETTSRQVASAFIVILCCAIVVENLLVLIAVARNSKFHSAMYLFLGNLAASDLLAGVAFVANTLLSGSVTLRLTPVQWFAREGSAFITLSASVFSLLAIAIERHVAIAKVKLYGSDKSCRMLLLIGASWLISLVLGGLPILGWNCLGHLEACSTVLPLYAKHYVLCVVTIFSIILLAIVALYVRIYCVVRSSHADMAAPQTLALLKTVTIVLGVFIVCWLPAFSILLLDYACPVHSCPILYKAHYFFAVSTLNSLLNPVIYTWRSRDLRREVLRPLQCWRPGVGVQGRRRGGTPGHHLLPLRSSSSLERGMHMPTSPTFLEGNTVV
Procedure: as §1
S1P2 Agonist-promoted G-protein responses were determined by measuring changes in intracellular inositol monophosphate using the IP-one TB kit (CisBio, Cat #: 62IPAPEJ) based on time-resolved fluorescence resonance energy transfer (TR-FRET) technology. AssayComplete™ Cell Plating 2 Reagent was removed and replaced with 1× IP-one stimulation buffer (as per manufacturer's instructions) along with test or control compounds at the desired concentrations.
Following a 60-minute incubation at 37° C. and 5% CO2 in a humidified CO2 and temperature-controlled incubator, the components of the IP-one TB kit were added as per the manufacturer's instructions. After an hour incubation at room temperature, plates were analyzed by a BMG PheraStar microplate reader.
as §3

[5] = target: T1, human sphingosine-1-phosphate receptor 1 (S1P1); experiment: Inhibition of cAMP production (HTRF cAMP HiRange), S1P1 CHO-K1 cells; type: cell-based; details: for Emax: CHO-K1, efficacy normalized to maximum efficacy of fingolimod, read-out: hS1P1 CAMP SPAN; for EC50: read-out: hS1P1 CAMP pEC50 (converted)
Method in brief: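 CHO-K1 cells co-expressing human S1P1 (C-terminal ProLink tag) and EA-β-arrestin2, plated overnight; after 30 min compound incubation at 37 °C, intracellular cAMP measured by HTRF TR-FRET following 1 h at room temperature. Values normalized to fingolimod.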
Target sequence in this assay (P21453 whole entry, the tested form may be a part): as the sequence (P21453 whole entry, the tested form may be a part) above

[6] = tested on: peripheral blood lymphocytes; experiment: Lymphopenia: peripheral blood lymphocyte counts, acute and chronic s.c. dosing; type: in vivo; details: 7 days, c57bl/6 mice; for Lymphopenia effect (change in peripheral blood lymphocytes): 6 mg/kg sc, vs vehicle
Procedure: Compounds were tested for changes in peripheral blood lymphocytes in C57bl/6 mice. In acute studies, animals (n=5/group) were dosed subcutaneously with test compound at a dose of 3 mg/kg. Animals were sacrificed at specific time points and […] of whole blood was collected in EDTA (K2) Eppendorf tubes. Blood was stored on ice and shipped immediately overnight delivery to Charles River Laboratories for analysis. CRL ran samples through their WBC/differential panel on an Advia 120 instrument. We received peripheral lymphocyte counts (10^3 cells/μl) for each blood sample. Treatment group means were compared to a vehicle treatment group for statistical significance. In chronic studies, animals (n=6-8/group) were dosed subcutaneously for three to seven days with test compound at doses that were at least 5-fold higher than the efficacious dose in pharmacology/behavioral assays. On the last day, animals were sacrificed 45 minutes to 6 hrs after the final dose. Whole blood was collected and analyzed as described for acute studies. […]

[7] = CHO-K1, β-arrestin2 recruitment
[8] = inhibition of cAMP production, potency
[9] = inhibition of cAMP production, S1P1

Structure (SMILES) | Emax [1] [%] | EC50 [1] [µM] | Emax [2, 7] [%] | EC50 ([2]; potency) [µM] | Emax [3] [%] | EC50 [3] [µM] | Emax [4] [%] | EC50 [4] [µM] | Emax ([5]; inhibition of cAMP production) [%] | EC50 [5, 8] [µM] | Emax ([2]; CHO-K1) [%] | EC50 ([2]; S1P1) [µM] | Emax [5] [%] | EC50 [5, 9] [µM] | Lymphopenia effect (change in peripheral blood lymphocytes) [6] | Lymphopenia effect (peripheral blood lymphocytes) ([6]; 3 mg/kg sc)
CCC1(CC)CC(=O)c2cc(-c3nc(-c4ccc5[nH]ncc5c4)no3)ccc2O1 [Compound 152, 6-(3-(1H-indazol-5-yl)-1,2,4-oxadiazol-5-yl)-2,2-diethyl-chroman-4-one] | < 50 | > 10 | > 75 | < 10 | < 50 | > 10 | < 50 | > 10 | > 75 | > 0.316 | – | – | – | – | – | –
CC(C)n1nnc2cc(-c3nc4c(o3)Cc3ccccc3-4)ccc21 [Compound 219, 5-{8H-indeno[1,2-d][1,3]oxazol-2-yl}-1-(propan-2-yl)-1H-1,2,3-benzotriazole] | < 50 | > 10 | > 75 | < 10 | < 50 | > 10 | < 50 | < 10 | < 75 | < 0.316 | – | – | – | – | – | –
CCC1(CC)CC(=O)c2cc(-c3nc(-c4ccc5[nH]c(=O)oc5c4)no3)ccc2O1 [Compound 445, 6-(5-(2,2-diethyl-4-oxochroman-6-yl)-1,2,4-oxadiazol-3-yl)benzo[d]oxazol-2(3H)-one] | – | – | – | – | < 50 | > 10 | < 50 | < 10 | – | – | > 75 | < 10 | > 75 | < 0.316 | – | –
Cc1ccncc1-c1noc(-c2ccc3c(c2)nnn3C2CCC2)n1 [Compound 417, 1-cyclobutyl-5-[3-(4-methylpyridin-3-yl)-1,2,4-oxadiazol-5-yl]-1H-1,2,3-benzotriazole] | < 50 | > 10 | – | – | < 50 | > 10 | < 50 | < 10 | – | – | > 75 | < 10 | > 75 | < 0.316 | – | –
CCC1(CC)CC(=O)c2cc(-c3nc(-c4ccccc4Cl)no3)ccc2O1 [Compound 221, 6-(3-(2-chlorophenyl)-1,2,4-oxadiazol-5-yl)-2,2-diethylchroman-4-one] | < 50 | < 10 | > 75 | < 10 | < 50 | < 10 | < 50 | > 10 | > 75 | < 0.316 | – | – | – | – | – | –
C=CCNc1ccc(-c2nc(-c3cn[nH]c3)no2)cc1C#N [Compound 252, 5-(3-(1H-pyrazol-4-yl)-1,2,4-oxadiazol-5-yl)-2-(allyl-amino)benzonitrile] | > 50 | < 10 | > 75 | – | < 50 | < 10 | < 50 | < 10 | > 75 | – | – | – | – | – | – | –
CC(C)Nc1ccc(-c2ncc(-c3cccnc3)cn2)cc1C#N [Compound 737, 2-(isopropylamino)-5-(5-(pyridin-3-yl)pyrimidin-2-yl)benzonitrile] | – | – | – | – | – | – | – | – | – | – | – | – | – | – | −40% not stat sig: 6 mg/kg, 7 days | –
CC(C)Nc1ccc(-c2nc(-c3ccc4oc(=O)[nH]c4c3)no2)cc1C#N [Compound 422, 2-(isopropylamino)-5-(3-(2-oxo-2,3-dihydrobenzo[d]oxazol-5-yl)-1,2,4-oxadiazol-5-yl)benzonitrile] | – | – | – | – | < 50 | < 10 | < 50 | < 10 | – | – | > 75 | < 10 | > 75 | < 0.316 | – | –
CC(C)Oc1ccc(-c2nc(-c3ccc4c(c3)nnn4C(C)C)no2)cc1C#N [Compound 22, 2-isopropoxy-5-(3-(1-isopropyl-1H-benzo[d] [1,2,3]triazol-5-yl)-1,2,4-oxadiazol-5-yl)benzonitrile] | – | – | – | – | – | – | – | – | – | – | – | – | – | – | – | no change: 3 mg/kg, 7 days
C=CCNc1ccc(-c2nc(-c3ccc4sc(N)nc4c3)no2)cc1C#N [Compound 267, 2-(allylamino)-5-(3-(2-aminobenzo[d]thiazol-5-yl)-1,2,4-oxadiazol-5-yl)benzonitrile] | < 50 | > 10 | < 75 | < 10 | < 50 | > 10 | < 50 | > 10 | < 75 | < 0.316 | – | – | – | – | – | –
COc1ccccc1-c1nnc(-c2ccc3c(c2)oc(=O)n3C)o1 [Compound 406, 6-[5-(2-methoxy-phenyl)-1,3,4-oxadiazol-2-yl]-3-methyl-2,3-dihydro-1,3-benzoxazol-2-one] | < 50 | > 10 | – | – | < 50 | > 10 | < 50 | > 10 | – | – | > 75 | < 10 | > 75 | < 0.316 | – | –
COc1ccccc1-c1nc(-c2ccc3c(ccn3C(C)C)c2)no1 [Compound 398, 3-(1-isopropyl-1H-indol-5-yl)-5-(2-methoxyphenyl)-1,2,4-oxadiazole] | < 50 | > 10 | – | – | < 50 | > 10 | < 50 | > 10 | – | – | > 75 | < 10 | > 75 | < 0.316 | – | –
COc1cc(NC(C)=O)ccc1-c1noc(-c2ccc(NC(C)C)c(C#N)c2)n1 [Compound 731, N-[4-(5-{3-cyano-4-[(propan-2-yl)amino]phenyl}-1,2,4-oxadiazol-3-yl)-3-methoxyphenyl]acetamide] | – | – | – | – | – | – | – | – | – | – | – | – | – | – | −78% stat sig: 6 mg/kg, 7 days | –
CCC1(CC)CC(=O)c2cc(-c3nc(-c4ccnc(O)c4)no3)ccc2O1 [Compound 263, 2,2-diethyl-6-[3-(2-hydroxy-4-pyridyl)-1,2,4-oxadiazol-5-yl]chroman-4-one] | < 50 | > 10 | > 75 | < 10 | < 50 | > 10 | < 50 | > 10 | > 75 | < 0.316 | – | – | – | – | – | –
COc1cnccc1-c1nc(-c2ccc3c(ccn3C(C)C)c2)no1 [Compound 391, 3-(1-isopropyl-1H-indol-5-yl)-5-(3-methoxypyridin-4-yl)-1,2,4-oxadiazole] | < 50 | < 10 | – | – | > 50 | < 10 | < 50 | < 10 | – | – | > 75 | < 10 | > 75 | < 0.316 | – | –
